Results as given in patent publication US7045528B2, “Benzofused heterozryl amide derivatives of thienopyridines useful as therapeutic agents, pharmaceutical compositions including the same, and methods for their use” (Agouron Pharmaceuticals, Inc., priority 2002, dated 2006).

What was measured:
PDGFRβ = molecular target: T1, PDGFRβ (Homo sapiens, UniProt P09619); assay: PAE-PDGFRβ phosphorylation in PAE-PDGFRB cells assay; assay type: cell-based; details: PAE cells overexpressing human PDGFRβ, PDGF-BB stimulated; read-out: PAE PDGFR autophos IC50 (nM) AVG
T1 construct: expressed in transfected cells; host or cells: porcine aorta endothelial (PAE)-PDGFRβ cells
Method in brief: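 PAE cells overexpressing human PDGFRβ, serum-starved 16 h (0.1% FBS), were given compound for 1 h at 37 °C (0.5% DMSO) and then stimulated with 1 μg/mL PDGF-BB plus 2 mM Na3VO4 for 8 min. Receptor autophosphorylation was read by capture ELISA (HRP-PY20, TMB, 450 nm); IC50 from 4-parameter fit.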

[1] = tested on: human umbilical vein endothelial cells (HUVEC); assay: HUVEC+VEGF proliferation assay; assay type: cell-based; details: VEGF 6 ng/mL, 72 h, MTT
Method in brief: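 Exponentially growing passage 3–4 HUVEC were starved 24 h in F12K + 1% FBS, given compound (0.1% final DMSO) 1 h before 6 ng/mL final VEGF, then cultured 72 h. Proliferation was read as MTT dye reduction (4 h exposure), absorbance at 595 nm.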

Huvec = assay: bFGF Huvec proliferation; assay type: cell-based, human
[2] = molecular target: T2, unphosphorylated VEGF-R2Δ50 (FLVK) (Homo sapiens, UniProt P35968, DEL940-989/E990V); assay: VEGF-R2 coupled spectrophotometric assay, unphosphorylated VEGF-R2Δ50 (FLVK); assay type: biochemical; details: unphosphorylated VEGF-R2Δ50; for inhibition at 0.05 µM: read-out: FLVK (% inh @ 50 nM)
T2 construct: VEGF-R2Δ50 contains residues 806–939 and 990–1171; made in house; host or cells: baculovirus/insect cell system
Method in brief: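 Baculovirus-expressed human VEGF-R2Δ50 (kinase insert partly deleted, E990V), unphosphorylated form; ADP production coupled via PK/LDH to NADH oxidation, read at 340 nm. 20 mM poly(E4Y1), 3 mM ATP, 60 mM MgCl2, 2 mM MnCl2, 200 mM HEPES pH 7.5; 5–40 nM enzyme. Ki from Morrison tight-binding fit.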

T2 sequence (P35968 with tags, fused parts or gaps DEL940-989/E990V limits assumed): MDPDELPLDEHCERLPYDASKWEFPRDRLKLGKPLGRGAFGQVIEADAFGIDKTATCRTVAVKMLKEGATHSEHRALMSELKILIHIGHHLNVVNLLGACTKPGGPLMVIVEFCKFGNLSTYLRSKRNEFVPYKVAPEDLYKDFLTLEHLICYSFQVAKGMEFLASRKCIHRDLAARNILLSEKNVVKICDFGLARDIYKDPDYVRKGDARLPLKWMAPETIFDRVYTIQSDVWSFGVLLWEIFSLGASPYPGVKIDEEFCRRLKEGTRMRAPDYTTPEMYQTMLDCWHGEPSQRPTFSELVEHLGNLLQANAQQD
T1 sequence (P09619 33-1106): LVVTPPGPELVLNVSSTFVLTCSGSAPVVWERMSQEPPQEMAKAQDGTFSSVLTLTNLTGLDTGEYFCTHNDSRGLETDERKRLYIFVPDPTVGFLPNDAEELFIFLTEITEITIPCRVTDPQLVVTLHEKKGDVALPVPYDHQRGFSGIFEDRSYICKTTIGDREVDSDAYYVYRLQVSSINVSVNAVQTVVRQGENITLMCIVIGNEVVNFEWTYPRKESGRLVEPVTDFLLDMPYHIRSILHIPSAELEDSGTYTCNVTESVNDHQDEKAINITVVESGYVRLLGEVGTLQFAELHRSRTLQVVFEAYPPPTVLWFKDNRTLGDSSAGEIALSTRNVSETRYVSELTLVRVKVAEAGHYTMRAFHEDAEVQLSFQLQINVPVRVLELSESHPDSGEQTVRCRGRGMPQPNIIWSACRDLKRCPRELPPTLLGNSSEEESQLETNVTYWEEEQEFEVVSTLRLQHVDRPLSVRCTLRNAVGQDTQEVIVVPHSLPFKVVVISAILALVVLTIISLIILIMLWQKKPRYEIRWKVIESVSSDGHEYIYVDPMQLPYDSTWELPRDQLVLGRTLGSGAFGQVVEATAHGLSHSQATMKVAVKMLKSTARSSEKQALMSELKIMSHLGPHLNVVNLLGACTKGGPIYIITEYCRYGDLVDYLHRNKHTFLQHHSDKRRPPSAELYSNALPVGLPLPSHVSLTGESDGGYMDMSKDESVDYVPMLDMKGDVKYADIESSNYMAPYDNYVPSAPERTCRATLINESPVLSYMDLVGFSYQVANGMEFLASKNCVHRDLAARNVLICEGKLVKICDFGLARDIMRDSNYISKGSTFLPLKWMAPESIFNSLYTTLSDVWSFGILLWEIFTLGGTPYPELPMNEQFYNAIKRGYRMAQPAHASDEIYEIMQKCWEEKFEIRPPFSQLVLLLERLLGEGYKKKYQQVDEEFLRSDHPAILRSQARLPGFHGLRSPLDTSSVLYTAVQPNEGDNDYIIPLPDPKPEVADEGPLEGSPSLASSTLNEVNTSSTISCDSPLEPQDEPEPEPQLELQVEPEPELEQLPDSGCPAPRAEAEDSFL

Row | Compound | IC50 (PDGFRβ) | inhibition at 0.05 µM ([2]; 50 nM compound) | Ki [2] | IC50 ([1]; Homo sapiens, HUVEC) | IC50 (Huvec; Homo sapiens, HUVEC) | IC50 [1] | IC50 (Huvec; bFGF) | FLVK (% inh @ 50 nM) ([2]; 50 nM compound)
1 | Cc1c(C(=O)NC2CC2)c2ccc(Oc3ccnc4cc(C(=O)N5CCC[C@H]5CO)sc34)cc2n1C [Example 54, N-Cyclopropyl-6-[(2-{[(2S)-2-(hydroxymethyl)pyrrolidin-1-yl]carbonyl}thieno[3,2-b]pyridin-7-yl)oxy]-1,2-dimethyl-1H-indole-3-carboxamide] | 133 nM | 89% | 1.71 nM | 1.8 nM | 10000 nM | – | – | –
2 | Methoxy-azetidine-1-carbonyl)-thieno[3,2-b]pyridin-7-yloxy]-2-methyl-benzofuran-3-carboxylic acid methylamide [Example 78] | 14.8 nM | – | 0.221 nM | – | – | 0.507 nM | 30 nM | 93%
3 | CNC(=O)c1c(C)sc2cc(Oc3ccnc4cc(-c5nc(CO)cs5)sc34)ccc12 [Example 128] | 148 nM | 91% | 0.57 nM | 0.13 nM | 100 nM | – | – | –
4 | CCCNC(=O)c1c(C)n(C)c2cc(Oc3ccnc4cc(C(=O)N5CCC[C@H]5CO)sc34)ccc12 [Example 58, 6-(2-[2-(S)Hydroxymethyl-pyrrolidine-1-carbonyl]thieno[3,2-b]pyridin-7-yloxy)-1,2-dimethyl-1H-indole-3-carboxylic acid propylamide] | 124 nM | 55% | 7.59 nM | 3.65 nM | 7830 nM | – | – | –
5 | CCc1sc2cc(Oc3ccnc4cc(C(=O)N5CC[C@@H](OC)C5)sc34)ccc2c1C(=O)NC [Example 135, 2-Ethyl-6-[(2-{[(3R)-3-methoxypyrrolidin-1-yl]carbonyl}thieno[3,2-b]pyridin-7-yl)oxy]benzo[b]thiophene-3-carboxylic acid methylamide] | 212 nM | 87% | 1.54 nM | 1.02 nM | 559 nM | – | – | –
6 | Cc1oc2cc(Oc3ccnc4ccsc34)ccc2c1C(=O)NCCc1c[nH]c2cc(F)ccc12 [Example 104, 2-Methyl-6-(thieno[3,2-b]pyridin-7-yloxy)-benzofuran-3-carboxylic acid [2-(6-fluoro-1H-indol-3-yl)ethyl]-amide] | 164 nM | 100% | – | 8.4 nM | 227 nM | – | – | –
7 | Cc1sc2cc(Oc3ccnc4cc(C(=O)N5CCC5)sc34)ccc2c1C(=O)NC1CC1 [Example 127, 6-{[2-(Azetidin-1-ylcarbonyl)thieno[3,2-b]pyridin-7-yl]oxy}2-methylbenzo[b]thiophene-3-carboxylic acid cyclopropylamide] | 102 nM | 100% | 0.2 nM | 1 nM | 41 nM | – | – | –
8 | Cc1sc2cc(Oc3ccnc4cc(-c5nc(CO)cs5)sc34)ccc2c1C(=O)NC1CC1 [Example 129] | 168 nM | 88% | 0.2 nM | 0.219 nM | 100 nM | – | – | –
9 | Cc1c(C(=O)NCC2CC2)c2ccc(Oc3ccnc4cc(C(=O)N5CC[C@@H](O)C5)sc34)cc2n1C [Example 56] | 109 nM | 60% | 3.8 nM | 22 nM | 10000 nM | – | – | –
10 | CO[C@@H]1CCN(C(=O)c2cc3nccc(Oc4ccc5c(C(=O)NC6CC6)c(C)sc5c4)c3s2)C1 [Example 11, 6-[(2-{[(3R)-3-methoxypyrrolidin-1-yl]carbonyl}thieno[3,2-b]pyridin-7-yl)oxy]-2-methylbenzo[b]thiophene-3-carboxylic acid cyclopropylamide] | 104 nM | 93% | 0.492 nM | 0.56 nM | 40 nM | – | – | –
11 | CO[C@@H]1CCN(C(=O)c2cc3nccc(Oc4ccc5c(C(=O)NCCCO)c(C)sc5c4)c3s2)C1 [Example 124, 6-[(2-{[(3R)-3-Methoxypyrrolidin-1-yl]carbonyl}thieno[3,2-b]pyridin-7-yl)oxy]-2-methylbenzo[b]thiophene-3-carboxylic acid 3-hydroxypropylamide] | 376 nM | 82% | 2.19 nM | 1.6 nM | 8240 nM | – | – | –

Further lines, with some results ahead:

Row | IC50 (PDGFRβ) | inhibition at 0.05 µM ([2]; 50 nM compound) | Ki [2] | Compound | IC50 ([1]; Homo sapiens, HUVEC) | IC50 (Huvec; Homo sapiens, HUVEC) | IC50 [1] | IC50 (Huvec; bFGF) | FLVK (% inh @ 50 nM) ([2]; 50 nM compound)
12 | 63 nM | 61% | 11.5 nM | CNC(=O)c1c(C)n(C)c2cc(Oc3ccnc4cc(C(=O)N(C)C)sc34)ccc12 [Example 33, 7-({1,2-Dimethyl-3-[(methylamino)carbonyl]-1H-indol-6-yl}oxy)-N,N-dimethylthieno[3,2-b]pyridine-2-carboxamide] | 10 nM | 10000 nM | – | – | –
13 | 17.8 nM | 96% | 0.615 nM | CO[C@@H]1CCN(C(=O)c2cc3nccc(Oc4ccc5c(C(=O)NCC(C)C)c(C)oc5c4)c3s2)C1 [Example 87, 6-[2-(3-Methoxy-pyrrolidine-1-carbonyl)-thieno[3,2-b]pyridin-7-yloxy]-2-methyl-benzofuran-3-carboxylic acid isobutyl amide] | 1.25 nM | 6040 nM | – | – | –
14 | 21.3 nM | 87% | 1.2 nM | CNC(=O)c1c(C)n(C)c2cc(Oc3ccnc4cc(C(=O)N5CCC(CNC(=O)OC(C)(C)C)C5)sc34)ccc12 (stereo not drawn) [Example 44, tert-Butyl (1-{[7-({1,2-dimethyl-3-[(methylamino)carbonyl]-1H-indol-6-yl}oxy)thieno[3,2-b]pyridin-2-yl]carbonyl}pyrrolidin-3-yl)methylcarbamate] | 1.78 nM | 6040 nM | – | – | –
15 | 24.2 nM | 77% | 2.95 nM | CNC(=O)c1c(C)n(C)c2cc(Oc3ccnc4cc(-c5nc(C(C)(C)O)cs5)sc34)ccc12 [Example 40, 6-{2-[4(1-Hydroxy-1-methyl-ethyl)-thiazol-2-yl]-thieno[3,2-b]pyridin-7-yloxy}-1,2-dimethyl-1H-indole-3-carboxylic acid methylamide] | 1.12 nM | 7800 nM | – | – | –
16 | 59 nM | 65% | 7.97 nM | Cc1c(C(=O)NCCCO)c2ccc(Oc3ccnc4cc(C(=O)N5CCCC5)sc34)cc2n1C [Example 65, 1,2-Dimethyl-6-[2-(pyrrolidine-1-carbonyl)-thieno[3,2-b]pyridin-7-yloxy]-1H-indole-3-carboxylic acid (3-hydroxy-propyl)-amide] | 10 nM | 10000 nM | – | – | –
17 | 90.6 nM | 95% | 0.375 nM | Cc1sc2cc(Oc3ccnc4cc(-c5nccn5C)sc34)ccc2c1C(=O)NCC1CC1 [Example 119, 2-Methyl-6-{[2-(1-methyl-1-imidazol-2-yl)thieno[3,2-b]pyridin-7-yl]oxy}benzo[b]thiophene-3-carboxylic acid (cyclopropylmethyl)amide] | 1.46 nM | 1830 nM | – | – | –
18 | 7 nM | 100% | 0.2 nM | CNC(=O)c1c(C)oc2cc(Oc3ccnc4cc(-c5nc(CO)cs5)sc34)ccc12 [Example 81, 6-[2-(4-Hydroxymethyl-thiazol-2-yl)-thieno[3,2-b]pyridin-7-yloxy]-2-methyl-benzofuran-3-carboxylic acid methylamide] | 0.09 nM | 26 nM | – | – | –
19 | 47.1 nM | 95% | 0.43 nM | Cc1c(C(=O)Nc2ccccn2)c2ccc(Oc3ccnc4cc(-c5nccs5)sc34)cc2n1C [Example 70, 1,2-Dimethyl-6-(2-thiazol-2-yl-thieno[3,2-b]pyridin-7-yloxy)-1H-indole-3-carboxylic acid pyridin-2-ylamide] | 0.537 nM | 3980 nM | – | – | –
20 | 21 nM | 91% | – | CNC(=O)c1c(C)n(C)c2cc(Oc3ccnc4cc(-c5ccc(OC)cn5)sc34)ccc12 [Example 48, 6-[2-(5-Methoxy-pyridin-2-yl)-thieno[3,2-b]pyridin-7-yloxy]-1,2-dimethyl-1H-indole-3-carboxylic acid methylamide] | 0.94 nM | 239 nM | – | – | –
21 | 12.3 nM | 60% | 6.12 nM | CNC(=O)c1c(C)n(C)c2cc(Oc3ccnc4cc(-c5ccncc5)sc34)ccc12 [Example 38, 1,2-Dimethyl-6-(2-pyridin-4-yl-thieno[3,2-b]pyridin-7-yloxy)-1H-indole-3-carboxylic acid methylamide] | 27 nM | 10000 nM | – | – | –
22 | 84 nM | 67% | 9.33 nM | Cc1c(C(=O)NCCCO)c2ccc(Oc3ccnc4cc(C(=O)N5CCC5)sc34)cc2n1C [Example 63, 6-[2-(Azetidine-1-carbonyl)-thieno[3,2-b]pyridin-7-yloxy}-1,2-dimethyl-1H-indole-3-carboxylic acid (3-hydroxy-propyl)-amide] | 10 nM | 10000 nM | – | – | –
